The source of these data is patent US20240383872A1, “NOVEL PYRIDINE AND PYRAZINE COMPOUNDS AS INHIBITORS OF CANNABINOID RECEPTOR 2” (HOFFMANN-LA ROCHE INC., priority 2018, published 2024).

human CB2 receptor (CNR2), sequence (P34972 whole entry): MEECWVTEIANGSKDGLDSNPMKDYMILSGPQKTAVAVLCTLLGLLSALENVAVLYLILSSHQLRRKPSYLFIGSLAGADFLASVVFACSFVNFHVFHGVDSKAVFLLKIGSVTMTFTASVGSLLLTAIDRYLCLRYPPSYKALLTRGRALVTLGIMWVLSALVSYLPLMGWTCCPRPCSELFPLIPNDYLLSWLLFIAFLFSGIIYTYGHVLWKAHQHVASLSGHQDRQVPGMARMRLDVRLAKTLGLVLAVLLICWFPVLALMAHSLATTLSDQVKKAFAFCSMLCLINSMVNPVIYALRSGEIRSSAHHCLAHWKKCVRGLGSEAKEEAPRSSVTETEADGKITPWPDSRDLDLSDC

The test addresses human CB2 receptor (CNR2) (Homo sapiens (Human), UniProt P34972). Kind of test: Radioligand binding assay, human CB2. As to conditions: HEK cell membranes expressing human CNR2, [3H]-CP-55,940 radioligand. The procedure: The affinity of the compounds of the invention for cannabinoid CB1 receptors was determined using recommended amounts of membrane preparations (PerkinElmer) of human embryonic kidney (HEK) cells expressing the human CNRI or CNR2 receptors in conjunction with 1.5 or 2.6 nM [3H]-CP-55,940 (Perkin Elmer) as radioligand, respectively. Binding was performed in binding buffer (50 mM Tris, 5 mM MgCl2, 2.5 mM EDTA, and 0.5% (wt/vol) fatty acid free BSA, pH 7.4 for CB1 receptor and 50 mM Tris, 5 mM MgCl2, 2.5 mM EGTA, and 0.1% (wt/vol) fatty acid free BSA, pH 7.4 for CB2 receptor) in a total volume of 0.2 ml for 1 h at 30° C. shaking. The reaction was terminated by rapid filtration through microfiltration plates coated with 0.5% polyethylenimine (UniFilter GF/B filter plate; Packard). Bound radioactivity was analyzed for Ki using nonlinear regression analysis (Activity Base, ID Business Solution, Limited), with the Kd values for [3H]CP55,940 determined from saturation experiments. The compounds of formula (I) show an excellent affinity for the CB2 receptor.
The compounds according to formula (I) have an activity in the above assay (Ki) between 0.5 nM and 10 μM. Particular compounds of formula (I) have an activity in the above assay (Ki) between 0.5 nM and 3 μM. Other particular compounds of formula (I) have an activity in the above assay (Ki) between 0.5 nM and 100 nM.
Usually Ki stands for a dissociation constant, usually derived from enzyme kinetics or from competition with a known ligand. Low readings indicate tighter binding, high ones weaker binding. Regarding `COC1CN(c2ccc(C(=O)N[C@H](COCCF)CC(C)C)nc2OCC2CC2)C1` [Example 27, 6-(Cyclopropylmethoxy)-N-[(2S)-1-(2-fluoroethoxy)-4-methylpentan-2-yl]-5-(3-methoxyazetidin-1-yl) pyridine-2-carboxamide], the Ki was determined as 18 nM. As for `COC1CN(c2ccc(C(=O)N[C@H](COCCCF)CC(C)C)nc2OCC2CC2)C1` [Example 28, 6-(Cyclopropylmethoxy)-N-[(2S)-1-(3-fluoropropoxy)-4-methylpentan-2-yl]-5-(3-methoxyazetidin-1-yl) pyridine-2-carboxamide], the affinity corresponds to a Ki of 31 nM. To `COC1CN(c2ccc(C(=O)N[C@H](COCF)C(C)C)nc2OCC2CC2)C1` [Example 29, 6-(Cyclopropylmethoxy)-N-[(2S)-1-(fluoromethoxy)-3-methylbutan-2-yl]-5-(3-methoxyazetidin-1-yl) pyridine-2-carboxamide] belongs 269 nM; to `COC1CN(c2ccc(C(=O)N[C@H](COCCF)C(C)C)nc2OCC2CC2)C1` [Example 30, 6-(Cyclopropylmethoxy)-N-[(2S)-1-(2-fluoroethoxy)-3-methylbutan-2-yl]-5-(3-methoxyazetidin-1-yl) pyridine-2-carboxamide], 165 nM; to `COC1CN(c2ccc(C(=O)N[C@H](COCCCF)C(C)C)nc2OCC2CC2)C1` [Example 31, 6-(Cyclopropylmethoxy)-N-[(2S)-1-(3-fluoropropoxy)-3-methylbutan-2-yl]-5-(3-methoxyazetidin-1-yl) pyridine-2-carboxamide], 247 nM. As for `COC1CN(c2ccc(C(=O)N[C@@H](C)COCCF)nc2OCC2CC2)C1` [Example 32, 6-(Cyclopropylmethoxy)-N-[(2S)-1-(2-fluoroethoxy)propan-2-yl]-5-(3-methoxyazetidin-1-yl)pyridine-2-carboxamide], the affinity, expressed as Ki, was 3120 nM. The compound `COC1CN(c2ccc(C(=O)N[C@@H](C)COCCCF)nc2OCC2CC2)C1` [Example 33, 6-(Cyclopropylmethoxy)-N-[(2S)-1-(3-fluoropropoxy)propan-2-yl]-5-(3-methoxyazetidin-1-yl)pyridine-2-carboxamide] registered a Ki of 2810 nM. Then `CCC(CC)(COCF)NC(=O)c1ccc(N2CC(OC)C2)c(OCC2CC2)n1` [Example 34, 6-(Cyclopropylmethoxy)-N-{3-[(fluoromethoxy)methyl]pentan-3-yl}-5-(3-methoxyazetidin-1-yl) pyridine-2-carboxamide], with 33 nM; and `CCC(CC)(COCCF)NC(=O)c1ccc(N2CC(OC)C2)c(OCC2CC2)n1` [Example 35, 6-(Cyclopropylmethoxy)-N-{3-[(2-fluoroethoxy)methyl]pentan-3-yl}-5-(3-methoxyazetidin-1-yl) pyridine-2-carboxamide], with 62 nM; and `CCC(CC)(COCCCF)NC(=O)c1ccc(N2CC(OC)C2)c(OCC2CC2)n1` [Example 36, 6-(Cyclopropylmethoxy)-N-{3-[(3-fluoropropoxy)methyl]pentan-3-yl}-5-(3-methoxyazetidin-1-yl)pyridine-2-carboxamide], with 68 nM. In turn, `CC(C)C[C@H](COCCF)NC(=O)c1ccc(N2CCCC2)c(OCC2CC2)n1` [Example 37, 6-(Cyclopropylmethoxy)-N-[(2R)-1-(2-fluoroethoxy)-4-methylpentan-2-yl]-5-(pyrrolidin-1-yl)pyridine-2-carboxamide] registered a Ki of 288 nM.

The compound `COC1CN(c2ccc(C(=O)N[C@@H](COCCF)CC(C)C)nc2OCC2CC2)C1` [Example 38, 6-(Cyclopropylmethoxy)-N-[(2R)-1-(2-fluoroethoxy)-4-methylpentan-2-yl]-5-(3-methoxyazetidin-1-yl) pyridine-2-carboxamide] registered a Ki of 1300 nM.

In turn, `CCC(CC)(NC(=O)c1ccc(N2CC(C)(F)C2)c(OCC2CC2)n1)C(=O)NCCCF` [Example 39, 6-(Cyclopropylmethoxy)-5-(3-fluoro-3-methylazetidin-1-yl)-N-(3-(3-fluoropropylcarbamoyl)pentan-3-yl) picolinamide] returned a Ki of 524 nM.
